One experiment has as its system myocardial fibrosis. The conditions noted are these: animal models; cited from earlier work.
Experiment [1] deals with angiotensin II AT1 receptor. The experiment is described as follows: Assay A: Angiotensin II binding activity, rat uterine membrane preparation, 125I-AII displacement.
A further experiment relates to rabbit aortic rings. The experiment is described as follows: Assay B: In vitro vascular smooth muscle response for AII (antagonist activity, pA2). Type of experiment: cell-based. The conditions noted are these: Oryctolagus cuniculus, two values in a cell = two determinations. Summed up:
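Endothelium-denuded thoracic aortic rings from male New Zealand white rabbits, in oxygenated Krebs at 37° C. under ~1 g tension, gave isometric AII contraction curves (3×10^−10 to 1×10^−5 M).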

A further experiment concerns pressor response to AII. The experiment is described as follows: Assay C: In vivo intragastric pressor assay response for AII antagonists. The conditions noted are these: in vivo pressor response; for inhibition in vivo at 3 mg/kg: Rattus norvegicus. On the set-up: species or system Sprague-Dawley rats.

As for `CC(=O)S[C@@H]1CC2=CC(=O)CC[C@]2(C)[C@H]2CC[C@@]3(C)[C@@H](CC[C@@]34CCC(=O)O4)[C@H]12` [spironolactone, 17-hydroxy-7α-mercapto-3-oxo-17α-pregn-4-ene-21-carboxylic acid γ-lactone acetate], in the experiment on myocardial fibrosis, the “prevention of myocardial fibrosis” value is “prevents myocardial fibrosis”.
`CCCCc1cn(C)c(=O)n1Cc1ccc(-c2ccccc2-c2nnn[nH]2)nc1` [Compound 205] displayed an IC50 in experiment [1] of 20 nM. In the experiment with rabbit aortic rings, this compound had a Kb of 0.724 nM. For the same compound, testing at 3 mg/kg in the experiment on pressor response to AII (po, 3 mg/kg intragastrically) gave an inhibition in vivo of 40%. For the same compound, in the experiment with pressor response to AII (3 mg/kg intragastrically), the “Assay C Duration” value is more than 180 min.
The compound `CCCCc1cn(C2CCCCC2)c(=O)n1Cc1ccc(-c2ccccc2-c2nnn[nH]2)nc1` [Compound 216] returned an IC50 in experiment [1] of 5.4 nM. The compound further had a Kb with rabbit aortic rings of 1.58 nM. This compound returned an inhibition in vivo at 3 mg/kg in the experiment with pressor response to AII (po, 3 mg/kg intragastrically) of 50%. Also, in the experiment on pressor response to AII (3 mg/kg intragastrically), the “Assay C Duration” value was more than 180 min.
In experiment [1], `CCCCc1nc(-c2ccccc2C)n(Cc2ccc(-c3ccccc3-c3nnn[nH]3)nc2)n1` [Compound 273] registered an IC50 of 9.8 nM. For the same compound, in the experiment on rabbit aortic rings, the Kb was 2.95 nM. Moreover, in the experiment with pressor response to AII (po, 3 mg/kg intragastrically), at 3 mg/kg the inhibition in vivo was 25%. In addition, the “Assay C Duration” value in the experiment on pressor response to AII (3 mg/kg intragastrically) is more than 180 min.
The compound `CCCCCc1cn(CCCC)c(=O)n1Cc1ccc(-c2ccccc2-c2nnn[nH]2)nc1` [Compound 201] returned an IC50 in experiment [1] of 17 nM. For the same compound, the antagonist equilibrium constant (Kb) in the experiment on rabbit aortic rings is 1.66 nM. The same compound yielded an inhibition in vivo at 3 mg/kg with pressor response to AII (po, 3 mg/kg intragastrically) of 10%. In the experiment on pressor response to AII (3 mg/kg intragastrically), the “Assay C Duration” value worked out at 180 min.
For the compound `CCCCc1c(C)n(CCCC)c(=O)n1Cc1ccc(-c2ccccc2-c2nnn[nH]2)cc1` [Compound 148], the IC50 in experiment [1] is 0.87 nM. The compound further had an antagonist dissociation constant (Kb) in the experiment with rabbit aortic rings of 1580 nM. The compound further yielded an inhibition in vivo at 3 mg/kg in the experiment with pressor response to AII (intraduodenal, 3 mg/kg intraduodenally) of 92%. The “Assay C Duration” value in the experiment with pressor response to AII (3 mg/kg intraduodenally) fell in the range of 20 to 30 min.
With `CCCCn1cc(C2CCCCC2)n(Cc2ccc(-c3ccccc3-c3nnn[nH]3)nc2)c1=O` [Compound 202], in experiment [1], the IC50 is 12 nM. In addition, in the experiment with rabbit aortic rings, the Kb was 1.62 nM. In the experiment on pressor response to AII (po, 3 mg/kg intragastrically), this compound had an inhibition in vivo at 3 mg/kg of 65%. Further, the “Assay C Duration” value in the experiment with pressor response to AII (3 mg/kg intragastrically) is more than 180 min.

Values taken from patent US20040102423A1, “Spironolactone and angiotensin II antagonist combination therapy for treatment of congestive heart failure” (G.D. Searle & Co., priority 1995, published 2004).
